# How the values were obtained:
# [1] = tested on: peripheral blood mononuclear cells (PBMC); test: Peripheral blood mononuclear cell proliferation, whole blood, cats; type: in vivo, Tabby cats
# Procedure: Whole blood was used to analyze the mitogenic proliferative responsiveness of peripheral blood mononuclear cells (PBMC) to phytohemagglutinin (PHA), Con A and pokeweed mitogen (PWM) in order to mimic in vivo conditions. Heparinized whole blood was diluted 1:12 with RPMI-1640 containing 25 mM of Hepes, penicillin (100 U/mL) and streptomycin (100 μg/mL) (Sigma, St. Louis, Mo.) (hereafter termed complete medium). […] The mitogens were used at the following final concentrations previously determined to provide both maximal (the higher mitogen concentration) and suboptimal (the lower mitogen concentration) proliferation: PHA (1.25 and 0.25 μg/mL), Con A (2.5 and 0.5 μg/mL) or PWM (0.125 and 0.025 μg/mL). Tritiated thymidine uptake was measured by liquid scintillation and PBMC proliferation response was expressed as cpm of stimulated cultures corrected for cpm of unstimulated cultures.
# [2] = parameters: species or system Tabby cats; details: in vivo
# Procedure: Blood was collected by jugular venipuncture into heparinized evacuated tubes on weeks 0, 2, 4, 8 and 12 and aliquots used for HPLC analysis and for assessing immune responses.
# Plasma lutein, retinol and α-tocopherol were analyzed by reverse phase HPLC. Briefly, plasma protein was precipitated with an equal volume of ethanol containing 0.1% butylated hydroxytoluene (BHT) (Aldrich Chemical Co., Milwaukee, Wis.). The mixture was extracted with 5 mi of a 1:1 mixture of petroleum ether:anhydrous diethyl ether and the dried residue resuspended in mobile phase. The mobile phase was a mixture of acetonitrile, methanol and chloroform (47:47:6, v/v/v). The internal standard used was retinyl acetate (Sigma Chem. Co., St. Louis, Mo.). Samples were eluted on a 5 μm C18 reverse phase column (3.9×150 mm; Resolve, Millipore Corp., Milford Mass.) with a flow rate of 1.0 ml/min. The identity of the eluted compounds was verified by comparing their absorption spectra with those of standard compounds.
# [3] = Stability of lutein in prepared cat food; type: physicochemical; details: diets mixed weekly, stored at −20° C. in sealed containers under nitrogen gas, analyzed periodically
# Procedure: (§1) Prior to being fed to the cats, the lutein-containing diet was mixed with additional basal diet to achieve the desired lutein concentration. The final diets were mixed weekly and stored at −20° C. in sealed containers undernitrogen gas. […] Food and water were available ad libitum. Cats were housed (7 cats/pen; 1.5×5.0 m) in a temperature (20 to 22° C.) and light (14 h light) controlled facility.
# [4] = tested on: Canine thyroid adenocarcinoma cells; test: NK cell cytotoxicity, dogs; type: in vivo, Beagle dogs
# Procedure: Canine thyroid adenocarcinoma cells were used as target cells in assessing NK cell cytotoxic activity. This cell line was previously shown to be susceptible to killing by canine NK cell. Target cells were cultured in a T75 flask with 20 mL minimum essential medium (MEM; Sigma Chem. Co., St. Louis, Mo.) supplemented with 10% fetal calf serum (FC S), 100 U/mL of penicillin and 100 μg/mL of streptomycin. When confluent, target cells were trypsinized, washed 3 times and resuspended to 5×10^5 cells/mL in complete medium (RPMI-1640+10% FCS+100 U/mL of penicillin+100 μ/mL of streptomycin). Triplicate 100 μL aliquots of the target cells were pipetted into 96-well U-bottom plates (Costar, Cambridge, Mass.) and incubated for 8 hours to allow cell adherence. Lymphocytes (effector cells; 100 μL) isolated by percoll separation (as described above) were then added to the target cells to provide an effector:target cell (E:T) ratio of 10:1. After 10 hours of incubation at 37° C., 20 μl of a substrate containing 5 μg of 3-(4,5-dimethylthiazol-2-yl)-2,5-diphenyltetrazolium bromide (MTT) was added. […] Optical density was measured at 570 nm using a microplate reader. The percentage of NK cell-specific lysis was calculated as follows: Specific cytotoxicity (%)=100×{1−[(OD of target cells and effector cells−OD of effector cells)/(OD of target cells)]}
# [5] = Body weight and food intake of cats fed lutein; type: in vivo, Tabby cats
# Procedure: Fifty-six female Tabby cats (10 months old) were randomly assigned to be fed 0, 1, 5, or 10 mg lutein daily for 12 weeks. The lutein contained 76.66% lutein and 5.23% zeaxanthin and was incorporated into the basal diet (see Table 3) to a final concentration of 250 mg lutein/kg of diet.
# as §1
# [6] = tested on: transplantable murine mammary tumor cell line; details: mice, dietary lutein; cited from earlier work
# dogs = test: Delayed type hypersensitivity (skin induration) response in dogs; type: in vivo, Beagle dogs; details: for DTH response to PHA / DTH response to vaccine: dogs
# Procedure: Skin induration response was assessed in all dogs on weeks 0, 6, and 12. Dogs were injected intradermally in the flank area with saline (8.5 g/L; control), an attenuated polyvalent vaccine containing canine distemper virus, canine adenovirus type-2, canine parainfluenza virus and parvovirus (Vanguard 5, Smithkline Beacham, West Chester, Pa.; specific antigen), and PHA (0.5 g/L; nonspecific antigen). The doses of vaccine and PHA used were previously determined to provide optimal skin response in Beagle dogs of similar age. The injection site was clipped and wiped with 70% ethyl alcohol. The injection volume was 100 μL. Skin induration was measured at 0, 24, 48 and 72 h post-injection with the aid of a pressure-sensitive digital micrometer (Mitsutoyo, Tokyo, Japan) and response was expressed as a percentage of skin thickness measured at 0 h.
# malondialdehyde = test: Lipid peroxidation (TBARS), cat plasma; type: in vivo, Tabby cats; details: cats
# Procedure: Lipid peroxidation was assessed by the TBARS (thiobarbituric acid-reactive substances) assay on plasma collected on weeks 0, 2, 4, 8 and 12. Duplicate 500 μL of cat plasma was boiled for 45 minutes with 3 mL of phosphoric acid (10 g/L) and 1 mL of TBA (6 g/L). After cooling, the TBA-MDA (malondialdehyde) complex was extracted with 4 mL of n-butanol. The butanol layer was separated by centrifugation (1,000×g for 10 minutes) and absorbance read (Beckman, Fullerton, Calif.) at 532 nm. […] Louis, Mo.).
structure (smiles),measurement,setting,value
CC1=C[C@H](O)CC(C)(C)[C@H]1/C=C/C(C)=C/C=C/C(C)=C/C=C/C=C(C)/C=C/C=C(C)/C=C/C1=C(C)C[C@@H](O)CC1(C)C [lutein],Spontaneous proliferation by unstimulated PBMC,[1]; cats,did not significantly influence
same,PWM-stimulated PBMC proliferation (increased),"[1]; cats fed 1 mg lutein, week 4, 0.025 μg/mL PWM",differences were significant
same,PBMC proliferative response to Con A,"[1]; cats fed 10 mg lutein, Con A 2.5 μg/mL, week 4",significantly higher
same,PWM-stimulated PBMC proliferation (increased),"[1]; cats fed 1 and 10 mg lutein, week 4, 0.125 μg/mL PWM",differences were significant
same,"Tritiated thymidine uptake, average","[1]; cats, 0.25 μg/mL PHA","1,934±147 cpm"
same,"Tritiated thymidine uptake, average","[1]; cats, 1.25 μg/mL PHA","6,464±504 cpm"
same,PBMC proliferative response to Con A,"[1]; cats, Con A 2.5 μg/mL, week 8 and 12",treatment differences were not observed
same,PBMC proliferative response to Con A,"[1]; cats, suboptimal dose (0.5 μg/mL) of Con A",No significant treatment difference
same,PHA-induced PBMC proliferation,"[1]; cats, throughout the study",no significant dietary effects
same,"Spontaneous proliferation by unstimulated PBMC, average","[1]; cats, throughout the study","1,744±147 cpm"
same,Plasma lutein,[2],increased in a dose-dependent manner
same,Destruction of lutein in prepared food,[3],no significant destruction
same,Effect on NK cell cytotoxic activity,[4],did not significantly influence
same,"Specific lysis of target cells by PBMC, average","[4]; across all treatments and sampling periods, E:T 10:1",49.1±1.1%
same,Food intake among treatments,[5],not significantly different
same,Body weight average,[5]; across all diets and periods,1.41 ± 0.04 kg
same,Average daily food intake,[5]; across the study period,83.2 g
same,Effect on changes in body weight,[5]; during the experimental period,did not significantly affect
same,Mammary tumor incidence,[6],decreases
same,Tumor growth,[6],decreases
same,Tumor latency,[6],shortened
same,DTH response to PHA vs unsupplemented dogs,"dogs; dogs fed 20 mg lutein, week 12",significantly higher
same,DTH response to PHA,"dogs; week 6, 48 and 72 h",no significant treatment difference
same,DTH response to vaccine,"dogs; week 6, 48 and 72 h post-injection",dose-related
same,DTH response to vaccine,"dogs; week 6, 24 h",not significant
same,DTH response to PHA,"dogs; week 6, 24 h post-injection",dose-related
same,DTH response to vaccine,dogs; week 12,no significant dietary effect
same,DTH response to PHA,"dogs; week 12, 24, 48 and 72 h, all doses",general dose-dependent increase
same,Effect on plasma TBARS activity,malondialdehyde,did not significantly influence
same,"Plasma TBARS, average",malondialdehyde; across all diet groups and periods,20.3±0.2 nmol MDA/L
